For orientation: IC50 means the midpoint of a concentration-inhibition curve.

Molecules are shown by their SMILES.

The test system of data set [1] is PC-3 prostate cancer cell line. Kind of data set: Cell viability, sulforhodamine B assay. Format: cell-based. As to conditions: Homo sapiens, 72 h exposure, dilutions 12.5 to 100 μM, read-out: Cytotoxicity IC50, PC-3. How it is done: (§1) The cytotoxicity of compounds 1–12 was evaluated in vitro against different cancer cell lines: MCF-7 breast cancer, DU-145 and PC-3 human prostate cancer, and one non-tumor cell line, human colon epithelial cells CCD 841 CoN (CoN). […] Four serial dilutions (from 12.5 to 100 μM) for each sample were evaluated in triplicate.
(§2) The experimental cell cultures were obtained from the American Type Culture Collection (Rockville, MD, USA). MCF-7 cells (breast cancer cell line), PC-3 and DU-145 (prostate cancer cell lines), and human colon epithelial cells CCD 841 CoN (non-tumoral cell line) were grown in Dulbecco’s modified Eagle’s medium (DMEM) containing 10% FCS, 100 U/mL penicillin, 100 μg/mL streptomycin, and 1 mM glutamine. Cells were seeded into 96 well microtiter plates in 100 μL at a plating density of 5 × 10^3 cells/well. After 24 h incubation at 37 °C under a humidified 5% CO2 atmosphere to allow cell attachment, the cells were treated with different concentrations of drugs and incubated for 72 h under the same conditions. Stock solutions of compounds were prepared in ethanol and the final concentration of this solvent was kept constant at 1%. Control cultures received 1% ethanol alone.
(§3) The sulforhodamine B assay was used according to the method of Skehan et al.. Briefly, the cells were set up at 3 × 10^3 cells per well of a 96 200 μL well, flat-bottomed, microplate. Cells were incubated at 37 °C in a humidified 5% CO2/95% air mixture and treated with the compounds at different concentrations for 72 h. At the end of drug exposure, cells were fixed with 50% trichloroacetic acid at 4 °C. After washing with water, cells were stained with 0.1% sulforhodamine B (Sigma-Aldrich, St. Louis, MO, USA), dissolved in 1% acetic acid (50 μL/well) for 30 min, and subsequently washed with 1% acetic acid to remove unbound stain. Protein-bound stain was solubilized with 100 μL of 10 mM unbuffered Tris base, and the cell density was determined using a […] plate reader (wavelength 540 nm). Values shown are the mean ± SD of three independent experiments in triplicate. The software used to calculate the IC50 values was GraphPad (GraphPad Software, San Diego, CA, USA).
In general terms: The SRB assay estimates cell density from bound dye.

The nature of data set [2]: Cell viability, sulforhodamine B assay. Format: cell-based. The following applies: human, CCD 841 CoN colon epithelial cells (non-tumoral cell line), 72 h exposure, dilutions 12.5 to 100 μM, non-tumor cell line, read-out: Cytotoxicity IC50, CoN. How it is done: as §1, §2, §3
Data set [3] relates to MCF-7 breast cancer cell line. Kind of data set: Cell viability, sulforhodamine B assay. Format: cell-based. The following applies: Homo sapiens, MCF7, 72 h exposure, dilutions 12.5 to 100 μM, read-out: Cytotoxicity IC50, MCF-7. How it is done: as §1, §2, §3
Data set [4] has as its system DU-145 prostate cancer cell line. In words: Cell viability, sulforhodamine B assay. The format is cell-based. As to conditions: Homo sapiens, 72 h exposure, dilutions 12.5 to 100 μM, read-out: Cytotoxicity IC50, DU145. How it is done:
as §1, §2, §3

Data set [5] deals with panel of cancer cell lines. Kind of data set: Cytotoxicity against a panel of cancer cell lines (summary). The format is cell-based. The following applies: Homo sapiens; summary statement of the conclusions. How it is done: as §1, §3
For data set [6], the system named is caspase-3 in PC-3 cells. In words: Caspase 3 activity assay (colorimetric, DEVD-pNA). The format is cell-based, human. The following applies: PC-3, compound 50 μM; control 1% ethanol. The text has this:
(§4) Depletion of mitochondrial membrane potential leads to the release of apoptogenic factors, such as cytochrome c in the apoptotic cascade, and activation of caspases. Then we investigated the effects of our compounds on caspase activity. We focused on caspase-3, which is a main executor of apoptosis playing a central role in its biological processing. We analyzed the effect of treatment with the compound 1, 8 and 12 on caspase-3 activation in normal and cancer cells. […] Compound 1 increased the activity of caspase-3 by 3.4 ± 0.1, 1.4 ± 0.1 and 2.8 ± 0.1 times versus control cells in MCF-7 (black), CoN (white) and PC-3 (gray) cells, respectively. Compound 8 increased the activity of caspase 3 by 2.4 ± 0.1, 1.3 ± 0.2 and 2.7 ± 0.1 times versus control cells in MCF-7 (black), CoN (white) and PC-3 (gray) cells, respectively.
(§5) Caspase activity was measured using a colorimetric assay. Briefly, the cells exposed to compounds were collected by centrifugation at 1000 rpm and lysed with lysis buffer (1% Triton X-100, 0.32 M sucrose, 5 mM EDTA, 10 mM Tris–HCl, pH 8.0, 2 mM dithiothreitol, 1 mM PMSF, […] aprotinin, 1 mg/mL leupeptin). Thereafter, the lysates were transferred to wells in a 96-well microplate and were incubated with DEVD-pNA (final concentration 200 μM) specific for caspase-3/7, at 37 °C for 1 h. The intensity of the developed color was read at 405 nm in a microplate reader (SpectraMax, Winooski, VT, USA). The results are expressed as percentages of the control level.

In data set [7] the test system is caspase-3 in CoN cells. Kind of data set: Caspase 3 activity assay (colorimetric, DEVD-pNA). The following applies: compound 50 μM, control 1% ethanol. Format: cell-based, human.
Description: as §4, §5

Data set [8] relates to caspase-3 in MCF-7 cells. Kind of data set: Caspase 3 activity assay (colorimetric, DEVD-pNA). Format: cell-based, human. As to conditions: MCF-7, compound 50 μM; control 1% ethanol.
Description: as §4, §5

For data set [9], the system named is MCF-7 cells. Kind of data set: Mitochondrial membrane permeability, rhodamine 123 flow cytometry. Format: cell-based, human. An excerpt: (§6) Mitochondria play a crucial role in the apoptotic cascade by serving as a convergent center of apoptotic signals originating from both the extrinsic and intrinsic pathways. Changes induced in the mitochondrial membrane potential (MMP) have been reported previously to represent a determinant in the execution of cell death. As polygodial has been described as an inhibitor of mitochondrial ATPase and also as nonionic surfactant. This effect may be determinant in cell death, we has analyzed the effect of compounds 1, 8 and 12 on the mitochondrial membrane potential using flow cytometry with rhodamine 123 stain [24]. […] Similar differences were observed after treatments with compounds 1 and 8 at 100 μM.
(§7) Rhodamine 123, a cationic, voltage-sensitive probe that reversibly accumulates in mitochondria, was used to detect changes in transmembrane mitochondrial membrane potentials. Cells were labelled with 1 μM rhodamine 123 at 37 °C in cell medium for 60 min before terminating the experiment. Cells were detached from the plate, after washing with ice cold PBS, and the samples were analyzed by flow cytometry. Data are expressed in percentage of cells with rhodamine 123 [24].

Data set [10] concerns CoN cells. The data set is described as above. The format is cell-based, human.
Description: as §6, §7

The subject of data set [11] is PC-3 cells. The description is as above. The format is cell-based, human.
Description: as §6, §7

For data set [12], the system named is MCF-7 cells. In words: Morphological changes, phase contrast microscope. The format is cell-based, human. The following applies: MCF-7, 50 μM compound for 24 h. How it is done:
(§8) First, the appearance of morphological changes in the cells treated with 50 μM compound for 24 h was analyzed.

Data set [13] has as its system CoN cells. Kind of data set: Morphological changes, phase contrast microscope. Format: cell-based, human. As to conditions: 50 μM compound for 24 h. How it is done: as §8
Data set [14] concerns PC-3 cells. In words: Morphological changes, phase contrast microscope. The format is cell-based, human. The following applies: PC-3, 50 μM compound for 24 h. How it is done:
as §8

As to `CC1=CC[C@H]2C(C)(C)CCC[C@]2(C)[C@H]1CO` [Compound 3, drimenol], the half-inhibitory concentration (IC50) in [1], in [3] and in [4] was above 200 µM in each case. Also, the 50% inhibitory concentration (IC50) at 72 h in [2] was above 200 µM.
Regarding `CC1(C)CCC[C@]2(C)C3=C(CC[C@@H]12)C(=O)OC3` [Compound 4, confertifolin], the IC50 in data set [1], in data set [3] and in data set [4] was above 200 µM throughout. Moreover, the IC50 at 72 h in data set [2] was above 200 µM.
On to `CC1(C)CCC[C@]2(C)C3=C(CC[C@@H]12)COC3=O` [Compound 5, isodrimenin], for which the IC50 is below 200 µM in data set [5], 87.6 ± 9.2 µM in data set [1], above 200 µM in data set [3] and 90.5 ± 8.2 µM in data set [4]. Besides, the IC50 at 72 h in [2] is above 200 µM.
`CC1(C)CCC[C@]2(C)[C@H](CO)C(CO)=CC[C@@H]12` [Compound 6, 9α-drimendiol]: the concentration for half-maximal inhibition (IC50) in data set [1], in data set [3] and in [4] was above 200 µM throughout. The IC50 at 72 h in [2] is above 200 µM.
`CC1(C)CCC[C@]2(C)[C@@H](CO)C(CO)=CC[C@@H]12` [Compound 7, 9β-drimendiol]: the IC50 in data set [1], in [3] and in [4] was above 200 µM throughout. The IC50 at 72 h in data set [2] is above 200 µM.
For the molecule `CC1(C)CCC[C@]2(C)[C@H]3O[C@@]3(C)C(=O)C[C@@H]12` [Compound 9], the IC50 in data set [5] was below 200 µM; in data set [1], 97.5 ± 10.4 µM; in data set [3] it was above 200 µM; in [4], 93.5 ± 6.7 µM. Moreover, the IC50 at 72 h in data set [2] was above 200 µM.
Regarding `CC(=O)O[C@H]1C[C@H]2C(C)(C)CCC[C@]2(C)C=C1C` [Compound 10], the IC50 in data set [1], in data set [3] and in data set [4] was above 200 µM in each case. In addition, the IC50 at 72 h in [2] is above 200 µM.
For `CC(=O)O[C@H]1C[C@H]2C(C)(C)CCC[C@]2(C)[C@@H]2O[C@]12C` [Compound 11, (5S,7S,8R,9S,10S)-4,4,8β,10β-tetramethyldecahydronaphtho[8,9-α]oxiren-7-yl acetate], the IC50 in data set [1], in [3] and in [4] was above 200 µM throughout. The half-inhibitory concentration (IC50) at 72 h in data set [2] was above 200 µM.
Consider `CC1(C)CCCC2(C)C1CC(=O)C1(C)OC12` (stereo not drawn) [Compound 12, 8α,9α-epoxi-11-nordriman-7-one], for which the “increase of caspase-3 activity” value in [6], in data set [7] and in data set [8] was “did not change” in each case. Also, the IC50 in data set [5] was below 200 µM; in data set [1], 90.2 ± 8.8 µM; in data set [3] it was 88.4 ± 7.1 µM; in [4], above 200 µM. Besides, the “percentage of rhodamine 123 stained cells” value in [9] (MCF-7, compound 50 µM, control treated cells assigned 100%) amounted to 111.4 ± 8.9%; in data set [9] (MCF-7, compound 100 µM, control treated cells assigned 100%), 111.3 ± 9.8%; in [10] (compound 50 µM, control treated cells assigned 100%), 102.6 ± 9.1%; in data set [10] (compound 100 µM, control treated cells assigned 100%), 124.9 ± 9.7%; in data set [11] (PC-3, compound 50 µM, control treated cells assigned 100%), 139.1 ± 12.4%; in data set [11] (PC-3, compound 100 µM, control treated cells assigned 100%), 149.3 ± 21.3%. For the same molecule, in [2], the IC50 at 72 h was above 200 µM. Moreover, the “morphological changes of cells” value in [12], in data set [13] and in data set [14] was “severely distorted” each time.
`N#CC(C#N)=NNc1ccc(OC(F)(F)F)cc1` [FCCP, reference compound]: the “percentage of rhodamine 123 stained cells” value in data set [9] (MCF-7, positive control FCCP 10 μM) came out at 7.4 ± 0.4 %; in data set [10] (positive control FCCP 10 μM) it was 6.8 ± 1.3 %; in [11] (PC-3, positive control FCCP 10 μM) it was 5.2 ± 0.4 %.

Values taken from paper PMC6270921, “Study on the Cytotoxic Activity of Drimane Sesquiterpenes and Nordrimane Compounds against Cancer Cell Lines” (Molecules, 2014).
